Source: patent US11167039B2, “MET antibody drug conjugates” (priority 2016, dated 2021)

Assays:
[1] = system: MET expressing tumor cells; settings: reported, Strickler et al. 2016; cited from earlier work
HT-29 cells [2] = settings: Strickler, J. H., et al., read-out: EC50 in a HT-29 killing assay; cited from earlier work
[3] = system: pan-AKT phosphorylation (pAKT) in Caki-1 cells; assay: Phosphor-AKT bioassay for MET agonist activity in Caki-1 cells; format: cell-based; settings: 5 μg/mL
Description: Because it has been reported that MET agonistic antibodies increased hepatocyte proliferation and toxicity, a phosphor-AKT assay may be used to test MET-ADCs for MET agonist activity. Briefly stated, Caki-1 cells may be starved overnight in serum-free medium with 0.1% BSA and then treated with ADCs or naked MET antibodies at 5 μg/mL for the desired durations. Cell lysates may be analyzed for phosphorylation of pan-AKT by MSD ELISA, for example.

[4] = system: HT-29 colon cancer tumor xenografts; assay: HT-29 mouse xenograft model; format: in vivo; settings: separate experiment(s), data not shown
Description: Female athymic nude mice age 6- to 7-weeks old are available commercially, including from Harlan Laboratories (Indianapolis, Ind.). The mice are allowed to acclimate for one week and fed ad libitum on a normal low fat (4.5%) diet, which may be continued for the duration of the study. Tumor cells may be purchased from ATCC and may be cultured in cell culture media such as RPMI 1640 (Life Technologies) with L-glutamine, 25 mM HEPES supplemented with 10% FBS and 1 mM Na Pyruvate. Cells may be detached, washed with serum free medium and then resuspended at a final concentration of 50×10^6 cells/mL in serum free RPMI 1640. Tumor cells, approximately 5×10^6, may be injected subcutaneously in the rear flank of subject mice in a 1:1 mixture of serum free growth medium and Matrigel (Becton Dickinson, Bedford, Mass.). Tumor and body weight measurements may be performed twice weekly. Prior to treatment, mice can be randomized based on tumor size using a randomization algorithm. Treatments may be started when the average tumor volume reaches 100 mm^3. […]
MET-ADCs and control hIgG4-MMAE may be prepared in Phosphate Buffered Saline (PBS) prior to dose. Tumor size may be determined by caliper measurements. […] Tumor volume data can be transformed to a log scale to equalize variance across time and treatment groups. Log volume data can be analyzed with two-way repeated measures ANOVA by time and treatment using SAS PROC MIXED software (SAS Institutes Inc, Cary, N.C.). Treatment groups are compared with the specified control group at each time point.

HT-29 cells [5] = assay: HT-29 cell-killing assay; format: cell-based, human; settings: HT-29 cells
Description: Therefore, the HT-29 cell line may be used to determine if test MET-ADCs can kill MET overexpressing tumor cells in vitro.
Briefly described, 2-3×10^3 cells/well in 100 μL of culture medium may be plated in 96 well plates and incubated overnight at 37° C., 5% CO2. The MET-ADCs, MET antibody(ies), control MMAE or control hIgG4 conjugated to MMAE with cysteine conjugation antibody(ies) may be diluted 1:3 in serum-free culture medium starting from 100 nM (final) in 50 μL as 3× concentrations to the HT-29 cells. At the end of an additional 5-6 days of cell growth at 37° C. in a humidified incubator with 5% CO2, the plates may be equilibrated to room temperature for 30 minutes and 100 μL/well of CellTiter-Glo® reagent (Promega Corp., Fitchburg, Wis.) may then be added to assess cell viability. Cell viability may be determined by measuring luminescence.
Various tumor cell lines and normal human cells may be tested for MET-ADC induced cell killing activity essentially as described above in Example 10 as assessed for MET receptor density. MET cell surface density was determined by indirect immunofluorescence staining of cell surface antigens on cultured cells using QIFIKIT (Dako). […] Following a forty-five minute incubation, cells may be incubated for 1 hour on ice with FITC conjugated antibody diluted 1:50 in FACS buffer. Then cells may be washed and receptor numbers may be determined by indirect immunofluorescence staining of the QIFIKIT beads using a Becton Dickinson LSRII flow cytometer.

Substance | approximate threshold of MET cell surface molecules for sensitivity [1] | EC50 (HT-29 cells [2]) [nM] | MET agonist activity (induction of pan-AKT phosphorylation) [3] | inhibition of HT-29 tumor growth [4] | cell killing activity in HT-29 cells (HT-29 cells [5])
ABBV-399 | > 100,000 | 9 |  |  | 
Emibetuzumab |  |  | low to no agonist activity | did not inhibit HT-29 tumor growth | no significant cell killing activity
MET-ADC #6: emibetuzumab conjugated with maleimidocaproyl-valine-citrulline-p-aminobenzoyloxycarbonyl-monomethyl auristatin E (Mal-C-vc-PABC-MMAE) |  |  | significant increased agonist activity |  | less active than MET-ADC #1
